Results published in US20250214993A1, “AROMATIC RING COMPOUND AND USE THEREOF” (SHANGHAI SHIJIANG BIOTECHNOLOGY CO., LTD, priority 2022, published 2025).
Like-named read-outs stand apart in the source and are kept apart here.

What was measured:
[1] = tested on: Con-NCI-H82 cell; assay: Cell viability (Promega CellTiter-Glo, intracellular ATP), IC50 on Con-NCI-H82 cell; type: cell-based; details: Homo sapiens; normal untreated NCI-H82 cell (control)
From the text: (§1) The expression of NNMT protein in NCI-H82 cell was overexpressed by inserting the NNMT gene into NCI-H82 cell using a viral vector, and the NNMT protein-overexpressing NCI-H82 cell (ov-NNMT NCI-H82 cell) was obtained. The normal and untreated NCI-H82 cell (Con-NCI-H82 cell) was used as control. The expressing content of NNMT protein in the ov-NNMT NCI-H82 cell and Con-NCI-H82 cell was detected using Western Blot assay (as shown in FIG. 1), it could be seen from FIG. 1 that the NNMT protein was overexpressed in the ov-NNMT NCI-H82 cell compared with the expression level of NNMT protein in the Con-NCI-H82 cell.
(§2) The cell viability was detected using the Promega CellTiter-Glo kit which reflected cell viability by measuring intracellular ATP content. The Con-NCI-H82 cell and ov-NNMT NCI-H82 cell was cultured in 10% fetal bovine serum-containing RPMI1640 medium (+P/S).

[2] = tested on: ov-NNMT NCI-H82 cell; assay: Cell viability (Promega CellTiter-Glo, intracellular ATP), IC50 on NNMT-overexpressing NCI-H82 cell; type: cell-based; details: Homo sapiens; NCI-H82 cell overexpressing NNMT protein
From the text: as §1, §2

[3] = tested on: mPTP-active Daoy cell; assay: Cell viability (Promega CellTiter-Glo), IC50 on mPTP-active Daoy cell; type: cell-based; details: Homo sapiens; Daoy cell transfected with empty virus vector
[4] = tested on: mPTP-inactive Daoy cell; assay: Cell viability (Promega CellTiter-Glo), IC50 on mPTP-inactive Daoy cell (PPIF shRNA); type: cell-based; details: Homo sapiens; Daoy cell transfected with PPIF shRNA vector
[5] = tested on: mitochondria permeability transition pore (mPTP); assay: Mitochondria membrane potential difference by TMRM in Daoy cell; type: cell-based, human; details: CsA −, H2O2 +, untreated = 100
[6] = tested on: mitochondria permeability transition pore (mPTP); type: cell-based, human; details: Daoy cell with empty virus vector; CsA −, H2O2 +; untreated = 100
[7] = tested on: mitochondria permeability transition pore (mPTP); details: Daoy cell with PPIF shRNA vector; CsA −, H2O2 +; untreated = 100

| Structure (SMILES) | IC50 [1] | IC50 [2] | IC50 [3] | IC50 [4] | Relative TMRM signal intensity (%), mean value [5] | Relative TMRM signal intensity (%), mean value [6] | Relative TMRM signal intensity (%), mean value [7] |
| --- | --- | --- | --- | --- | --- | --- | --- |
| CN1c2nc[n+](C3CCc4ccc(Cl)cc4C3=O)cc2CCC1c1ccccc1 (centres unmarked) [AB27198] | 0.7 µM | 3.55 µM | 7.55 µM | 1.89 µM |  |  |  |
| O=C1c2sccc2CCC1[n+]1ccc2c(ccn2Cc2ccccc2)c1 (centres unmarked) [AB27200] | 1.12 µM | 5.68 µM | 6.03 µM | 2.15 µM |  |  |  |
| Cc1c2ccn(Cc3ccccc3)c2cc[n+]1C1CCc2ccc(Cl)cc2C1=O (centres unmarked) [AB27219] | 0.085 µM | 1.32 µM | 5.09 µM | 2.12 µM |  |  |  |
| CC(=O)N(Cc1ccccc1)c1cc[n+](CC(=O)c2ccc(C)cc2)c(C)c1 [AB27222] | 0.056 µM | 0.857 µM | 1.75 µM | 0.66 µM |  |  |  |
| CC(=O)N(Cc1ccccc1)c1cc[n+](C2CCc3ccc(Cl)cc3C2=O)cc1 (centres unmarked) [AB27230] | 0.126 µM | 1.26 µM | 2.92 µM | 0.92 µM |  |  |  |
| CCCCn1ccc2c[n+](C3CCc4ccc(Cl)cc4C3=O)ccc21 (centres unmarked) [AB27251] | 0.482 µM | 2.69 µM | 7.89 µM | 1.96 µM |  |  |  |
| Cc1ccc(C(=O)Cn2ccc3c[n+](Cc4ccccc4)cc(C)c32)cc1 [AB27256] | 0.022 µM | 0.253 µM | 0.33 µM | 0.12 µM |  |  |  |
| Cc1c[n+](Cc2ccccc2)cc2ccn(CC(=O)c3cccc(Cl)c3)c12 [AB27257] | 0.075 µM | 0.968 µM | 2.16 µM | 0.88 µM |  |  |  |
| Cc1ccc(C(=O)Cn2ccc3c[n+](C(C)c4ccccc4)ccc32)cc1 (centres unmarked) [AB27261] | 0.023 µM | 0.381 µM | 0.38 µM | 0.18 µM |  |  |  |
| Cc1ccc(C(=O)Cn2c(C)cc3c[n+](Cc4ccccc4)ccc32)cc1 [AB27277] | 0.015 µM | 0.245 µM | 0.16 µM | 0.03 µM |  |  |  |
| Cc1ccc(C(=O)CNc2cc[n+](Cc3ccccc3)cc2)cc1 [AB27283] | 0.874 µM | 3.38 µM | 10.6 µM | 3.24 µM |  |  |  |
| Cc1ccc(C(=O)C[n+]2ccc(N3CCc4ccccc43)cc2C)cc1 [AB27306] | 0.737 µM | 5.46 µM | 9.91 µM | 3.23 µM |  |  |  |
| Cc1ccc(C(=O)C[n+]2ccc(N3CCCCC3)cc2)cc1 [AB27309] | 0.837 µM | 4.86 µM | 8.58 µM | 3.37 µM |  |  |  |
| O=C1c2cc(Cl)ccc2CCC1n1ccc2c[n+](CC3CCCC3)ccc21 (centres unmarked) [AB27316] | 0.167 µM | 1.13 µM | 5.89 µM | 1.17 µM |  |  |  |
| Cc1ccc(C(=O)C[n+]2ccc(NCc3ccccc3)cc2C)c(F)c1 [AB27325] | 0.022 µM | 0.268 µM | 2.01 µM | 0.38 µM |  |  |  |
| Cn1cc(Cc2ccccc2)c2cc[n+](C3CCc4ccc(C(F)(F)F)cc4C3=O)cc21 (centres unmarked) [AB27338] | 0.391 µM | 2.36 µM | 6.62 µM | 2.09 µM |  |  |  |
| O=C1c2sccc2CCC1n1ccc2c[n+](Cc3ccccc3)ccc21 (centres unmarked) [AB27345] | 0.076 µM | 0.904 µM | 6.69 µM | 2.04 µM |  |  |  |
| O=C1c2cc(F)ccc2CCC1[n+]1cnc2c(ccn2Cc2ccccc2)c1 (centres unmarked) [AB27355] | 0.121 µM | 1.02 µM | 5.92 µM | 1.17 µM |  |  |  |
| O=C1c2cc(F)ccc2CCC1[n+]1ccc2c(ccn2Cc2ccccc2)c1 (centres unmarked) [AB27356] | 0.13 µM | 1.74 µM | 5.54 µM | 0.94 µM |  |  |  |
| Cc1cc2c[n+](Cc3ccccc3)ccc2n1CC(=O)c1cccc(OC(F)(F)F)c1 [AB27455] | 0.022 µM | 0.265 µM | 0.36 µM | 0.11 µM |  |  |  |
| Cc1cc2c[n+](Cc3ccccc3)ccc2n1CC(=O)c1cccc(C(F)(F)F)c1 [AB27456] | 0.022 µM | 0.383 µM | 0.38 µM | 0.13 µM |  |  |  |

| Structure (SMILES) | IC50 [1] | IC50 [2] | IC50 [3] | IC50 [4] | Relative TMRM signal intensity (%), mean value [5] | Relative TMRM signal intensity (%), mean value [6] | Relative TMRM signal intensity (%), mean value [7] |
| --- | --- | --- | --- | --- | --- | --- | --- |
| Cc1cn(CC(=O)c2cccc(OC(F)(F)F)c2)c2cc[n+](Cc3ccccc3)cc12 [AB27457] | 0.417 µM | 6.61 µM | 8.61 µM | 2.16 µM |  |  |  |
| Cc1cn(CC(=O)c2cccc(C(F)(F)F)c2)c2cc[n+](Cc3ccccc3)cc12 [AB27458] | 0.748 µM | 7.72 µM | 10.3 µM | 3.01 µM |  |  |  |
| Cc1cn(C2CCc3ccc(F)cc3C2=O)c2cc[n+](C(C)c3ccccc3)cc12 (centres unmarked) [AB27459] | 0.086 µM | 1.24 µM | 2.43 µM | 0.84 µM |  |  |  |
| Cc1cn(CC(=O)c2ccc(C(F)(F)F)cc2)c2cc[n+](Cc3ccccc3)cc12 [AB27463] | 2.06 µM | 10.6 µM | 10.6 µM | 4.76 µM |  |  |  |
| Cc1cn(Cc2ccccc2)c2cc[n+](C3CCc4ccc(F)cc4C3=O)cc12 (centres unmarked) [AB27470] | 0.112 µM | 2.43 µM | 3.23 µM | 0.93 µM |  |  |  |
| CC(c1ccccc1)n1cc2cc[n+](C3CCc4ccc(Cl)cc4C3=O)cc2c1 (centres unmarked) [AB27481] | 0.228 µM | 2.73 µM | 2.72 µM | 0.65 µM |  |  |  |
| Cc1c(Cl)c2c[n+](Cc3ccccc3)ccc2n1CC(=O)c1cccc(OC(F)(F)F)c1 [AB27483] | 1.16 µM | 7.24 µM | 8.24 µM | 2.08 µM |  |  |  |
| O=C(Cn1c(Cl)cc2c[n+](Cc3ccccc3)ccc21)c1cccc(OC(F)(F)F)c1 [AB27486] | 0.034 µM | 0.489 µM | 0.58 µM | 0.28 µM |  |  |  |
| O=C(Cn1c(Cl)cc2c[n+](Cc3ccccc3)ccc21)c1cccc(C(F)(F)F)c1 [AB27487] | 0.031 µM | 0.496 µM | 0.57 µM | 0.22 µM |  |  |  |
| O=C(Cn1c(Br)cc2c[n+](Cc3ccccc3)ccc21)c1cccc(OC(F)(F)F)c1 [AB27489] | 0.023 µM | 0.287 µM | 0.37 µM | 0.17 µM |  |  |  |
| Cc1c(C)n(CC(=O)c2cccc(OC(F)(F)F)c2)c2cc[n+](Cc3ccccc3)cc12 [AB27492] | 0.174 µM | 1.49 µM | 3.75 µM | 1.21 µM |  |  |  |
| O=C(Cn1ncc2c[n+](Cc3ccccc3)ccc21)c1cccc(OC(F)(F)F)c1 [AB27498] | 2.18 µM | 11 µM | 9.89 µM | 1.96 µM |  |  |  |
| O=C1c2cc(Cl)ccc2CCC1n1ncc2c[n+](Cc3ccccc3)ccc21 (centres unmarked) [AB27500] | 0.122 µM | 0.904 µM | 3.18 µM | 0.62 µM |  |  |  |
| O=C1c2cc(Cl)ccc2CCC1n1cnc2c[n+](Cc3ccccc3)ccc21 (centres unmarked) [AB31704] | 0.264 µM | 3.19 µM | 3.69 µM | 0.77 µM |  |  |  |
| O=C1c2cc(F)ccc2CCC1n1ncc2c[n+](Cc3ccccc3)ccc21 (centres unmarked) [AB31773] | 0.11 µM | 1.81 µM | 2.98 µM | 0.49 µM |  |  |  |
| O=C1c2cc(C(F)(F)F)ccc2CCC1n1ncc2c[n+](Cc3ccccc3)ccc21 (centres unmarked) [AB31774] | 0.97 µM | 7.92 µM | 9.92 µM | 1.53 µM |  |  |  |
| O=C1c2cc(OC(F)(F)F)ccc2CCC1n1ncc2c[n+](Cc3ccccc3)ccc21 (centres unmarked) [AB31775] | 0.124 µM | 2.09 µM | 5.38 µM | 1.39 µM |  |  |  |
| Cc1ccc2c(c1)CCC(n1ncc3c[n+](Cc4ccccc4)ccc31)C2=O (centres unmarked) [AB31777] | 0.128 µM | 1.99 µM | 6.99 µM | 1.23 µM |  |  |  |
| Nc1cc[n+](CC(=O)c2ccccc2)cc1 [AB36527] | 39.7 µM | 36.5 µM | 39.1 µM | 40.9 µM |  |  |  |
| Nc1cc[n+](CC(=O)c2ccc(OC(F)(F)F)cc2)cc1 [AB36528] | 19.5 µM | 19 µM | 15.7 µM | 17.9 µM |  |  |  |
| OO [Compound H2O2, H2O2] |  |  |  |  | 82% | 79% | 95% |
